This passage reports Activity and inhibition results from ChEMBL document CHEMBL4418912, “Methods of identifying antagonists of the hTAS2R46 bitter taste receptor” (2014).

Format in all cases: functional, cell-based
The target of assay [1] is T1, Taste receptor type 2 member 5 (Homo sapiens) (UniProt Q9NYW4).
T1 sequence (whole entry): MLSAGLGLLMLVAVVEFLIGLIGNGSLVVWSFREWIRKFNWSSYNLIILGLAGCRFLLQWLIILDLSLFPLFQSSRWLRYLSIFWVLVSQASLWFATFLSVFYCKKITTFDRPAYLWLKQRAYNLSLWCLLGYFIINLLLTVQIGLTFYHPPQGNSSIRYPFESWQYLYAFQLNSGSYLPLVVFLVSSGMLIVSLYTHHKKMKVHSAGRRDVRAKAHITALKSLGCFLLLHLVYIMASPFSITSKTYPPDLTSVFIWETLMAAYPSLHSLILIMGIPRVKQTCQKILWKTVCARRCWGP
The experiment in a line: Potentiation of denatonium saccharide-induced agonist activity at recombinant human N-terminal rat ST3 receptor-fused TAS2R5 expressed in HEK293T cells co-expressing Galpha16gust44 assessed as increase in intracellular calcium level at 100 uM by FLIPR assay. In general terms: Calcium flux is commonly read through the fluorescence of an indicator in the cells.

For assay [2], the target named is Taste receptor type 2 member 60 (Homo sapiens) (UniProt P59551). The assay is described as follows: Agonist activity at recombinant human N-terminal rat ST3 receptor-fused TAS2R60 expressed in HEK293T cells co-expressing Galpha16gust44 assessed as increase in intracellular calcium level at 100 uM by FLIPR assay.
For assay [3], the target named is T2, Taste receptor type 2 member 16 (Homo sapiens) (UniProt Q9NYV7).
T2 sequence (whole entry): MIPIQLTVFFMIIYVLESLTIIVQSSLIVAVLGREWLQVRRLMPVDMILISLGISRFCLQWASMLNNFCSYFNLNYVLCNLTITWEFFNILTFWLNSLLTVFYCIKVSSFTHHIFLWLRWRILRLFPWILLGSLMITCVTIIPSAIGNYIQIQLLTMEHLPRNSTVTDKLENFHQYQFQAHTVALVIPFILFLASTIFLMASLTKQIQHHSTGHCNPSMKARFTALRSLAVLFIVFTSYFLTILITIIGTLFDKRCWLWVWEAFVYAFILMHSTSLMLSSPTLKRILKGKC
The assay is described as follows: Agonist activity at recombinant human N-terminal rat ST3 receptor-fused TAS2R16 expressed in HEK293T cells co-expressing Galpha16gust44 assessed as increase in intracellular calcium level at 100 uM by FLIPR assay.

For assay [4], the target named is T3, Taste receptor type 2 member 7 (Homo sapiens) (UniProt Q9NYW3).
T3 sequence (whole entry): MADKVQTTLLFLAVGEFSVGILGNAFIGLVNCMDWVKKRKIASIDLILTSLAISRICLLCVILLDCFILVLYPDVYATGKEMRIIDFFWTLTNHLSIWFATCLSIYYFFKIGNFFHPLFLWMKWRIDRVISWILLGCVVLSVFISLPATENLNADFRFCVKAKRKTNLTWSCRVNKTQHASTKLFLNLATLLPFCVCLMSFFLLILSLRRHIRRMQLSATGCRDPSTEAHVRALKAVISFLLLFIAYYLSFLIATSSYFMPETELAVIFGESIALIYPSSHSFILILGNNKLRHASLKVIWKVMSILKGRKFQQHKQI
The experiment in a line: Potentiation of quinine sulfate-induced agonist activity at recombinant human N-terminal rat ST3 receptor-fused TAS2R7 expressed in HEK293T cells co-expressing Galpha16gust44 assessed as increase in intracellular calcium level at 100 uM by FLIPR assay.

Assay [5] concerns the target T4, Taste receptor type 2 member 1 (Homo sapiens) (UniProt Q9NYW7).
T4 sequence (whole entry): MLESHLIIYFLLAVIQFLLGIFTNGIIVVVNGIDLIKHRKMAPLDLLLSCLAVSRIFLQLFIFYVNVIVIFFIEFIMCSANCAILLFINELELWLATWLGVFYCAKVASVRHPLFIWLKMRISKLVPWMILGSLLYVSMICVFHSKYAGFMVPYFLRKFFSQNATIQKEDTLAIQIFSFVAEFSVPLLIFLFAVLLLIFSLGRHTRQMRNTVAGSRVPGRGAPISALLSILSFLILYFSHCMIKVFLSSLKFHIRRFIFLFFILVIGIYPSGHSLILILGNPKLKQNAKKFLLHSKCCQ
The experiment in a line: Agonist activity at recombinant human N-terminal rat ST3 receptor-fused TAS2R1 expressed in HEK293T cells co-expressing Galpha16gust44 assessed as increase in intracellular calcium level at 100 uM by FLIPR assay.

Assay [6] addresses Taste receptor type 2 member 42 (Homo sapiens) (UniProt Q7RTR8). The experiment in a line: Agonist activity at recombinant human N-terminal rat ST3 receptor-fused TAS2R42 expressed in HEK293T cells co-expressing Galpha16gust44 assessed as increase in intracellular calcium level at 100 uM by FLIPR assay.
Assay [7] concerns the target T5, Taste receptor type 2 member 20 (Homo sapiens) (UniProt P59543).
T5 sequence (whole entry): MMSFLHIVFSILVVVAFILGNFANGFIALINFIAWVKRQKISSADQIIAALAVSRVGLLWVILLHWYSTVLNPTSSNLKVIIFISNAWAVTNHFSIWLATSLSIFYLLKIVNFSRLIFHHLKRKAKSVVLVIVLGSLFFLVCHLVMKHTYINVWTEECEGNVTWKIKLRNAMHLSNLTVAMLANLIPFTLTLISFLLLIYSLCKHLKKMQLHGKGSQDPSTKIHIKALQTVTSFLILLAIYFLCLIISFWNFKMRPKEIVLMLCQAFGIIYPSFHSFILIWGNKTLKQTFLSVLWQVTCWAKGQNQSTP
The experiment in a line: Agonist activity at recombinant human N-terminal rat ST3 receptor-fused TAS2R49 expressed in HEK293T cells co-expressing Galpha16gust44 assessed as increase in intracellular calcium level at 100 uM by FLIPR assay.

Assay [8] deals with T6, Taste receptor type 2 member 4 (Homo sapiens) (UniProt Q9NYW5).
T6 sequence (whole entry): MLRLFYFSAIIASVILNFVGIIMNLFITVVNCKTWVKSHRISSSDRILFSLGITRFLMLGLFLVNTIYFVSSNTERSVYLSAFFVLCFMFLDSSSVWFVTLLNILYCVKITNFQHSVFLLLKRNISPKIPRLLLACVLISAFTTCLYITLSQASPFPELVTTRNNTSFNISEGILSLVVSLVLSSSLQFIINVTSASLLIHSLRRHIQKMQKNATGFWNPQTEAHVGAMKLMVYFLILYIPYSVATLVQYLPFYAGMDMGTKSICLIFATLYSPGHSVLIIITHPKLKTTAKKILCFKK
The experiment in a line: Agonist activity at recombinant human N-terminal rat ST3 receptor-fused TAS2R4 expressed in HEK293T cells co-expressing Galpha16gust44 assessed as increase in intracellular calcium level at 100 uM by FLIPR assay.

Assay [9] concerns the target T3, Taste receptor type 2 member 7 (Homo sapiens). The assay is described as follows: Antagonist activity at recombinant human N-terminal rat ST3 receptor-fused TAS2R7 expressed in HEK293T cells co-expressing Galpha16gust44 assessed as inhibition of quinine sulfate-induced increase in intracellular calcium level at 100 uM by FLIPR assay.

The source made the active and inactive calls. The calls are words filed in the database; no cut-off is given here.

Sequence of Taste receptor type 2 member 60 (Homo sapiens) (P59551 whole entry, the tested form may be a part): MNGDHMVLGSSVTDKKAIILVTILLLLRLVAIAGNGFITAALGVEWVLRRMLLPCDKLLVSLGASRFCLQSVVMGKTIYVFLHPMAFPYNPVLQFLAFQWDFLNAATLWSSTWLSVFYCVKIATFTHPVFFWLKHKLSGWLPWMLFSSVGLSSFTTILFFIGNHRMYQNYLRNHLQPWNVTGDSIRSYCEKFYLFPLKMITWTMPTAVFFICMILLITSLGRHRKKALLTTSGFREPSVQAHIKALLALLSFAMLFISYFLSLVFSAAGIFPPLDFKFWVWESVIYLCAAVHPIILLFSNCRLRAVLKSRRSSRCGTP
Sequence of Taste receptor type 2 member 42 (Homo sapiens) (Q7RTR8 whole entry, the tested form may be a part): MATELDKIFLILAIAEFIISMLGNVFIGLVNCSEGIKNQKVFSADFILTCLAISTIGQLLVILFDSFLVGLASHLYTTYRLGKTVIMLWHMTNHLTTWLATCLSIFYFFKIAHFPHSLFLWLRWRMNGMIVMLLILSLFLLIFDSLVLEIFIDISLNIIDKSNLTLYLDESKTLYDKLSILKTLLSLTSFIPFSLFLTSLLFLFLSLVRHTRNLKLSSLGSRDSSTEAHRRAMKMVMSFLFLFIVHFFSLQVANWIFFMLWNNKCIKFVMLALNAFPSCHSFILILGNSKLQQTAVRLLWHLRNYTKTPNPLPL

Turning to `C/C1=C\C[C@H](O)/C(C)=C/[C@H]2OC(=O)[C@@H](C)[C@@H]2CC1`, the outcome in assay [1], in assay [4], in assay [5] and in assay [8] was Active. Moreover, the outcome in assay [2], in assay [3], in assay [6] and in assay [7] was inactive.
For the compound `C/C1=C\C[C@H](O)[C@@H](C)C[C@H]2OC(=O)[C@@H](C)[C@@H]2CC1`, the inhibition result in assay [9] was “inactive”.
